According to patent US11753407B2, “Compounds for treating spinal muscular atrophy” (PTC Therapeutics, Inc., priority 2012, dated 2023):

Experiments:
[1] = system: SMN2 minigene mRNA (SMN2-A minigene) in HEK293H cells; experiment: SMN2 minigene mRNA splicing RT-qPCR assay in cultured cells; format: cell-based, human; settings: Homo sapiens, HEK293-H; concentration increasing full length SMN2 mRNA 1.5-fold relative to vehicle-treated cells; HEK293H cells with SMN2-A minigene, 24 hours, 7-point concentration data; read-out: EC1.5x for production of full length SMN2 mRNA
Summary of the method: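 HEK293H cells stably carrying the SMN2-A minigene were treated for 24 h at 37 °C with a 7-point, 3.16-fold dilution series of compound. Multiplex RT-qPCR measured exon 7-containing minigene FL mRNA against GAPDH, expressed relative to vehicle by modified ΔΔCt; the EC1.5× is the concentration giving a 1.5-fold increase.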

[2] = system: Smn protein in SMA patient fibroblast cells (GM03813); experiment: Smn protein assay in cultured cells (SMN HTRF); format: cell-based, human; settings: SMA patient fibroblast cells, 48 hours; for EC1.5x for Smn protein expression: 7-point concentration curve, SMN HTRF, concentration producing 1.5 times Smn protein vs DMSO vehicle control; for maximum fold (Fold) increase of Smn protein: 7-point concentration data, fold relative to vehicle control
Summary of the method: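 SMA patient fibroblasts (5,000 cells/well, DMEM-10% FBS) were treated for 48 h at 37 °C with a 7-point, 3.16-fold dilution series in triplicate. RIPA lysates were probed by HTRF (anti-SMN d2/kryptate, overnight, room temperature), reading 665/620 nm. EC1.5× is the concentration giving 1.5-fold Smn over DMSO vehicle.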

With Cn1cc2cc(-c3cc(=O)n4cc(C5CCNCC5)ncc4n3)ccc2n1 [Compound 566, 2-(2-methyl-2H-indazol-5-yl)-7-(piperidin-4-yl)-4H-pyrazino[1,2-a]pyrimidin-4-one] the EC (1.5-fold increase) [1] was < 0.1 µM, the “EC1.5x for Smn protein expression” value [2] was “**** (an EC1.5x≤0.3 μM is indicated by four stars (****))” and the “maximum fold (Fold) increase of Smn protein” value (from here on “maximum fold (Fold) increase”) [2] was “***** (a fold increase >1.65 is indicated by five stars (*****))”. It also gave a melting point of 235 to 237 °C.

With CN1CCC(c2cn3c(=O)cc(-c4ccc5nn(C)cc5c4)nc3cn2)CC1 [Compound 567, 2-(2-methyl-2H-indazol-5-yl)-7-(1-methylpiperidin-4-yl)-4H-pyrazino[1,2-a]pyrimidin-4-one] the EC (1.5-fold increase) [1] was 0.1 to 0.3 µM, the “EC1.5x for Smn protein expression” value [2] was “*** (an EC1.5× between >0.3 μM and ≤1 μM is indicated by three stars (***))” and the “maximum fold (Fold) increase” value [2] was “**** (a fold increase between >1.5 and ≤1.65 is indicated by four stars (****))”. For the same compound, the melting point was 275 to 277 °C.

For CCN1CCC(c2cn3c(=O)cc(-c4ccc5nn(C)cc5c4)nc3cn2)CC1 [Compound 568, 7-(1-ethylpiperidin-4-yl)-2-(2-methyl-2H-indazol-5-yl)-4H-pyrazino[1,2-a]pyrimidin-4-one], the EC (1.5-fold increase) [1] was < 0.1 µM, the “EC1.5x for Smn protein expression” value [2] was “**** (an EC1.5x≤0.3 μM is indicated by four stars (****))” and the “maximum fold (Fold) increase” value [2] was “***** (a fold increase >1.65 is indicated by five stars (*****))”. The melting point was 198 to 200 °C.

In the case of Cn1cc2cc(-c3cc(=O)n4cc(C5CCN(CCO)CC5)ncc4n3)ccc2n1 [Compound 569, 7-[1-(2-hydroxyethyl)piperidin-4-yl]-2-(2-methyl-2H-indazol-5-yl)-4H-pyrazino[1,2-a]pyrimidin-4-one], the EC (1.5-fold increase) [1] is reported as < 0.1 µM, the “EC1.5x for Smn protein expression” value [2] is reported as “**** (an EC1.5x≤0.3 μM is indicated by four stars (****))” and the “maximum fold (Fold) increase” value [2] is reported as “***** (a fold increase >1.65 is indicated by five stars (*****))”. The melting point was 230 to 232 °C.

With Cc1cn2nc(-c3cc(=O)n4cc(N5CCC(CN(C)C)CC5)ccc4n3)cc2c(C)n1 [Compound 570, 7-{4-[(dimethylamino)methyl]piperidin-1-yl}-2-(4,6-dimethylpyrazolo[1,5-a]pyrazin-2-yl)-4H-pyrido[1,2-a]pyrimidin-4-one] the EC (1.5-fold increase) [1] was 0.3 to 1 µM, the “EC1.5x for Smn protein expression” value [2] was “** (an EC1.5× between >1 μM and ≤3 μM is indicated by two stars (**))” and the “maximum fold (Fold) increase” value [2] was “**** (a fold increase between >1.5 and ≤1.65 is indicated by four stars (****))”. It also gave a melting point of 206 to 208 °C.

In the case of Cc1cn2nc(-c3cc(=O)n4cc(N5CCC(CN6CCCC6)CC5)ccc4n3)cc2c(C)n1 [Compound 571, 2-(4,6-dimethylpyrazolo[1,5-a]pyrazin-2-yl)-7-[4-(pyrrolidin-1-ylmethyl)piperidin-1-yl]-4H-pyrido[1,2-a]pyrimidin-4-one], the EC (1.5-fold increase) [1] is reported as 0.3 to 1 µM, the “EC1.5x for Smn protein expression” value [2] is reported as “** (an EC1.5× between >1 μM and ≤3 μM is indicated by two stars (**))” and the “maximum fold (Fold) increase” value [2] is reported as “**** (a fold increase between >1.5 and ≤1.65 is indicated by four stars (****))”. For the same compound, the melting point was 177 to 180 °C.

For Cc1cn2nc(-c3cc(=O)n4cc(N5CCC(CN6CCCCC6)CC5)ccc4n3)cc2c(C)n1 [Compound 572, 2-(4,6-dimethylpyrazolo[1,5-a]pyrazin-2-yl)-7-[4-(piperidin-1-ylmethyl)piperidin-1-yl]-4H-pyrido[1,2-a]pyrimidin-4-one], the EC (1.5-fold increase) [1] was 0.3 to 1 µM, the “EC1.5x for Smn protein expression” value [2] was “** (an EC1.5× between >1 μM and ≤3 μM is indicated by two stars (**))” and the “maximum fold (Fold) increase” value [2] was “**** (a fold increase between >1.5 and ≤1.65 is indicated by four stars (****))”. The melting point was 192 to 195 °C.

For COc1ccc(-c2cc(=O)n3cc(N4CCC(CN(C)C)CC4)ccc3n2)cc1OC [Compound 573, 2-(3,4-dimethoxyphenyl)-7-{4-[(dimethylamino)methyl]piperidin-1-yl}-4H-pyrido[1,2-a]pyrimidin-4-one], the EC (1.5-fold increase) [1] was 0.3 to 1 µM, the “EC1.5x for Smn protein expression” value [2] was “** (an EC1.5× between >1 μM and ≤3 μM is indicated by two stars (**))” and the “maximum fold (Fold) increase” value [2] was “**** (a fold increase between >1.5 and ≤1.65 is indicated by four stars (****))”. It also gave a melting point of 182 to 184 °C.

With COc1ccc(-c2cc(=O)n3cc(N4CCC(CN5CCCC5)CC4)ccc3n2)cc1OC [Compound 574, 2-(3,4-dimethoxyphenyl)-7-[4-(pyrrolidin-1-ylmethyl)piperidin-1-yl]-4H-pyrido[1,2-a]pyrimidin-4-one] the EC (1.5-fold increase) [1] was 0.3 to 1 µM, the “maximum fold (Fold) increase” value [2] was “** (a fold increase between >1.2 and ≤1.35 is indicated by two stars (**))” and the melting point was 194 to 196 °C.

In the case of COc1ccc(-c2cc(=O)n3cc(N4CCC(CN5CCCCC5)CC4)ccc3n2)cc1OC [Compound 575, 2-(3,4-dimethoxyphenyl)-7-[4-(piperidin-1-ylmethyl)piperidin-1-yl]-4H-pyrido[1,2-a]pyrimidin-4-one], the EC (1.5-fold increase) [1] is reported as 0.3 to 1 µM, the “maximum fold (Fold) increase” value [2] is reported as “*** (a fold increase between >1.35 and ≤1.5 is indicated by three stars (***))” and the melting point is reported as 184 to 186 °C.

For Cc1cn2cc(-c3cc(=O)n4cc(C5CCN(CCO)CC5)ccc4n3)ccc2n1 [Compound 576, 7-[1-(2-hydroxyethyl)piperidin-4-yl]-2-(2-methylimidazo[1,2-a]pyridin-6-yl)-4H-pyrido[1,2-a]pyrimidin-4-one], the EC (1.5-fold increase) [1] was < 0.1 µM, the “EC1.5x for Smn protein expression” value [2] was “**** (an EC1.5x≤0.3 μM is indicated by four stars (****))” and the “maximum fold (Fold) increase” value [2] was “***** (a fold increase >1.65 is indicated by five stars (*****))”. For the same compound, the melting point was 200 to 202 °C.

For Cc1cn2cc(-c3cc(=O)n4cc(C5=CCN(CCO)CC5)ccc4n3)ccc2n1 [Compound 577, 7-[1-(2-hydroxyethyl)-1,2,3,6-tetrahydropyridin-4-yl]-2-(2-methylimidazo[1,2-a]pyridin-6-yl)-4H-pyrido[1,2-a]pyrimidin-4-one], the EC (1.5-fold increase) [1] was < 0.1 µM, the “EC1.5x for Smn protein expression” value [2] was “**** (an EC1.5x≤0.3 μM is indicated by four stars (****))” and the “maximum fold (Fold) increase” value [2] was “***** (a fold increase >1.65 is indicated by five stars (*****))”. The melting point was 248 to 250 °C.

In the case of CN1CCC(c2ccc3nc(-c4ccc5nn(C)cc5c4)cc(=O)n3c2)CC1 [Compound 578, 2-(2-methyl-2H-indazol-5-yl)-7-(1-methylpiperidin-4-yl)-4H-pyrido[1,2-a]pyrimidin-4-one], the EC (1.5-fold increase) [1] is reported as < 0.1 µM, the “EC1.5x for Smn protein expression” value [2] is reported as “**** (an EC1.5x≤0.3 μM is indicated by four stars (****))” and the “maximum fold (Fold) increase” value [2] is reported as “***** (a fold increase >1.65 is indicated by five stars (*****))”. For the same compound, the melting point was 256 to 258 °C.

In the case of Cc1cn2cc(-c3cc(=O)n4cc(C5CCN(C)CC5)ncc4n3)ccc2n1 [Compound 579, 2-(2-methylimidazo[1,2-a]pyridin-6-yl)-7-(1-methylpiperidin-4-yl)-4H-pyrazino[1,2-a]pyrimidin-4-one], the EC (1.5-fold increase) [1] is reported as 0.1 to 0.3 µM, the “EC1.5x for Smn protein expression” value [2] is reported as “*** (an EC1.5× between >0.3 μM and ≤1 μM is indicated by three stars (***))” and the “maximum fold (Fold) increase” value [2] is reported as “***** (a fold increase >1.65 is indicated by five stars (*****))”. For the same compound, the melting point was 277 to 280 °C.
